Reference: paper PMC10046377, “Inhibitors of the Oncogenic PA2G4-MYCN Protein-Protein Interface” (Cancers, 2023)

Target: T1, PA2G4 protein (Homo sapiens, UniProt Q9UQ80)
T1 sequence (Q9UQ80 1-394): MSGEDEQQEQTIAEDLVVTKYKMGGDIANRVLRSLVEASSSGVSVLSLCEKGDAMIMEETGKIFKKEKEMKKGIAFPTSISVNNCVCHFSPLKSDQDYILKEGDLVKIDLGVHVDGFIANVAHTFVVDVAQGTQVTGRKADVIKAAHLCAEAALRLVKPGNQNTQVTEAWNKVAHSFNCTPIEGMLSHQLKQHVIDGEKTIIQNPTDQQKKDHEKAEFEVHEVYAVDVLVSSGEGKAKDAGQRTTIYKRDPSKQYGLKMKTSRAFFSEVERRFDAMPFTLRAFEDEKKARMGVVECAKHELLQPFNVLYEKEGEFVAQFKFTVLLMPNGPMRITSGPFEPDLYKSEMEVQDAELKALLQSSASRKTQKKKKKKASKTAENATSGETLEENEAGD
Assay: Surface plasmon resonance binding to recombinant PA2G4
Parameters: PA2G4 protein construct was ordered from GenScript (Piscataway, NJ, USA) and cloned into a pET22b vector; host or cells: BL21 (DE3) E. coli
Conditions: SPR
Experimental: PA2G4 protein construct was ordered from GenScript (Piscataway, NJ, USA) and cloned into a pET22b vector. The construct was expressed in BL21 (DE3) E. coli, which was transformed by adding 2 μL of DNA, as per the Addgene Bacterial Transformation Protocol (Addgene, Cambridge, MA, USA). A total of 250 μL of transformed cells were grown in Luria-Bertani (LB) agar, containing 100 μg/mL of ampicillin, overnight at 37 °C. Starting cultures were created by inoculating 100 mL of LB with several bacterial culture colonies, followed by an overnight shaking incubation at 125 rpm and 37 °C. The overnight culture was added (10 mL/L) to 2 L flasks of LB and incubated at 125 rpm and 37 °C until log phase growth was reached (OD600 = 0.6). Following incubation, the cell line was centrifuged at 4200 rpm for 30 min in 1 L bottles. The cell pellet was then resuspended in 25 mL of phosphate-buffered saline (PBS) and centrifuged again at 4200 rpm for 30 min.
Cell pellets were resuspended in 25 mL of Ni-IMAC buffer A (100 mM Tris (pH 8.0), 0.5 M NaCl, 1 mM TCEP), filtered through 22–25 μm Miracloth, and placed on ice. Filtered cells were lysed using the EmulsiFlex-C5 High-Pressure homogenizer (Avestin, Ottawa, ON, Canada), followed by high-speed centrifugation at 18,000 rpm for 20 min. The supernatant, containing the soluble cell lysate, was loaded onto a 5 mL His-Trap column (GE Healthcare Life Sciences, Buckinghamshire, UK) equilibrated in Ni-IMAC buffer A. An incremental gradient of Ni-IMAC buffer B (100 mM Tris pH 8.0, 0.5 M NaCl, 1 mM TCEP, and 1 M imidazole) was introduced. Eluted fractions were analysed by SDS-PAGE and pooled accordingly. Each protein sample was then loaded onto a HiPrep 26/10 Desalting column (GE Healthcare Life Sciences, Buckinghamshire, UK) and equilibrated into anion exchange buffer A (100 mM Tris pH 8.0, 50 mM NaCl, 1 mM TCEP). Samples were loaded onto the column and eluted fractions were analysed by SDS-PAGE and pooled accordingly.
Protein was loaded onto a 5 mL HiTrap Q (Sephrose-Q) anion exchange column (GE Healthcare Life Sciences, Buckinghamshire, UK) and equilibrated in anion exchange buffer A. Samples were loaded, eluted in the flow-through, and analysed using SDS-PAGE. Samples were pooled and concentrated using 10 kDa MWCO Ultra-4 centrifugal filters (Merck, Macquarie Park, NSW, Australia) and intermittent centrifugation at 4000 rpm. Protein samples were then purified using Size Exclusion Chromatography (SEC). Each sample was concentrated to […] using MWCO Ultra-4 centrifugal filters, then loaded onto a Superdex 75 16/60 SEC column (GE Healthcare Life Sciences, Buckinghamshire, UK) and equilibrated in SEC buffer (25 mM Hepes pH 7.7, 100 mM NaCl, 1 mM TCEP). Samples were eluted, analysed by SDS-PAGE, and concentrated to 10 mg/mL using 10 kDa MWCO Ultra-4 centrifugal filters, with intermitted centrifugation at 4000 rpm.
Recombinant PA2G4 was buffer exchanged into PBS buffer using an overnight dialysis at 4 °C. Protein was concentrated to 0.5 mg/mL and incubated for 3 h on ice with a 20:1 molar excess of EZ-Link Sulfo-NHS-LC-Biotin (Thermo Scientific, Melbourne, VIC, Australia). Biotinylated protein samples were isolated from excess biotin using a Superdex 200 10/300 SEC column (GE Healthcare Life Sciences, Buckinghamshire, UK). All SPR experiments were performed on a Biacore T200 instrument (GE Healthcare Life Sciences, Uppsala, Sweden), at 25 °C, in the presence of HEPES Buffered Saline (HBS) (20 mM […] (pH 7.5) 137 mM NaCl, 2.7 mM KCl, and 0.05% Tween 20). Streptavidin was coupled to a CM5 chip (GE Healthcare Life Sciences, Buckinghamshire, UK) using amine coupling. Biotinylated protein samples were then capture-coupled to the streptavidin, with flow cell 1 blocked as a reference.
Compounds were dissolved in 100% DMSO and diluted to 10 mM. […]

[1] = Biacore T200, 25 °C, biotinylated PA2G4

SMILES	Kd [1]	Kd (recombinant PA2G4)
Cc1cccc(Oc2cc(N3CCC(C(=O)NCc4cccc(C(F)(F)F)c4)CC3)ncn2)c1C [#3567]	14.9 µM	14.9 µM
Cc1cccc(Oc2cc(N3CCC(C(=O)NCc4cccc(Br)c4)CC3)ncn2)c1C [#5333]	10.8 µM	10.8 µM
Cc1cccc(Oc2cc(N3CCC(C(=O)N[C@@H](C)CCc4ccccc4)CC3)ncn2)c1C [#5338]	13.5 µM	13.5 µM
